Results reported in PubChem BioAssay (NCI).
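1) Cells in 96-well plates. 2) Compound, 48 h, 5 concentrations. 3) Linear interpolation between surrounding doses. 4) Unreached endpoint = highest concentration. TGI: concentration producing complete growth inhibition.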

How the values were obtained:
Experiment in all cases: DTP human tumour cell line panel, 48 h
SF-268 CNS = tested on: SF-268 CNS
OVCAR-5 ovarian = tested on: OVCAR-5 ovarian
EKVX NSCLC = tested on: EKVX NSCLC
SN12C renal = tested on: SN12C renal
MOLT-4 leukemia = tested on: MOLT-4 leukemia
HS 578T breast = tested on: HS 578T breast
NCI/ADR-RES ovarian = tested on: NCI/ADR-RES ovarian
MDA-MB-231 breast = tested on: MDA-MB-231 breast
NCI-H522 lung = tested on: NCI-H522 lung
OVCAR-3 ovarian = tested on: OVCAR-3 ovarian
NCI-H460 lung = tested on: NCI-H460 lung
LOX IMVI melanoma = tested on: LOX IMVI melanoma
HOP-62 NSCLC = tested on: HOP-62 NSCLC
SK-MEL-28 melanoma = tested on: SK-MEL-28 melanoma
OVCAR-4 ovarian = tested on: OVCAR-4 ovarian
KM12 colon = tested on: KM12 colon
PC-3 prostate = tested on: PC-3 prostate
HL-60(TB) leukemia = tested on: HL-60(TB) leukemia
OVCAR-8 ovarian = tested on: OVCAR-8 ovarian
K-562 leukemia = tested on: K-562 leukemia

| SMILES | TGI (SF-268 CNS) [µM] | TGI (OVCAR-5 ovarian) [µM] | TGI (EKVX NSCLC) [µM] | TGI (SN12C renal) [µM] | TGI (MOLT-4 leukemia) [µM] | TGI (HS 578T breast) [µM] | TGI (NCI/ADR-RES ovarian) [µM] | TGI (MDA-MB-231 breast) [µM] | TGI (NCI-H522 lung) [µM] | TGI (OVCAR-3 ovarian) [µM] | TGI (NCI-H460 lung) [µM] | TGI (LOX IMVI melanoma) [µM] | TGI (HOP-62 NSCLC) [µM] | TGI (SK-MEL-28 melanoma) [µM] | TGI (OVCAR-4 ovarian) [µM] | TGI (KM12 colon) [µM] | TGI (PC-3 prostate) [µM] | TGI (HL-60(TB) leukemia) [µM] | TGI (OVCAR-8 ovarian) [µM] | TGI (K-562 leukemia) [µM] |
| --- | --- | --- | --- | --- | --- | --- | --- | --- | --- | --- | --- | --- | --- | --- | --- | --- | --- | --- | --- | --- |
| O=C(O)c1ccc(Nc2nc3ccc(C(F)(F)F)cc3nc2C(=O)O)cc1 | > 100 | > 100 | > 100 | > 100 | > 100 | > 100 | > 100 | > 100 | > 100 | > 100 | > 100 | > 100 | > 100 | > 100 | > 100 | > 100 | > 100 | > 100 | > 100 | > 100 |
| CC1=NC(=O)CNN1C1=NNC2(C(=O)N1)c1ccccc1-c1ccccc12 | > 100 | > 100 | > 100 | > 100 | – | > 100 | > 100 | > 100 | > 100 | > 100 | > 100 | > 100 | > 100 | > 100 | > 100 | – | > 100 | > 100 | > 100 | > 100 |
| CCOC(=O)CN1C(=O)c2c(NC(=O)C(=O)O)cccc2S1(=O)=O | > 100 | > 100 | > 100 | > 100 | > 100 | > 100 | > 100 | > 100 | > 100 | – | > 100 | > 100 | > 100 | > 100 | > 100 | > 100 | > 100 | > 100 | > 100 | > 100 |
| Cc1nnc(N)nc1C/C=C/C(C)Sc1ccc(Cl)cc1 (stereo not given) | 39.9 | 36.9 | 23.3 | > 80.6 | > 100 | > 75.9 | > 60.3 | > 41.9 | 16.1 | – | 30.3 | > 30.4 | 25.4 | 45 | 48 | 20.7 | 17.8 | 10.1 | > 56.5 | > 100 |
| Cc1cnc2c(c1)C(=O)N(c1ccc(Br)cc1)S2(=O)=O | > 100 | > 100 | > 100 | > 100 | > 100 | > 100 | > 100 | > 100 | > 100 | > 100 | > 100 | > 100 | > 100 | > 100 | > 100 | > 100 | > 100 | > 100 | > 100 | – |
| Cc1ccc(/C=C2\CCS(=O)(=O)c3ccccc3C2=O)cc1 | 51.6 | 90.7 | 34.9 | 45.1 | 43.6 | > 100 | 28.2 | 34.6 | – | 37.7 | 31.3 | 30.8 | 80.4 | 39.1 | 34.8 | 30.6 | 45.3 | 73.1 | 30.7 | > 100 |
| COc1c(-c2ccc(F)cc2)oc2c(CC(=O)O)cccc2c1=O | > 100 | > 100 | > 100 | > 100 | > 100 | > 100 | > 100 | > 100 | > 100 | > 100 | – | – | > 100 | – | – | – | > 100 | > 100 | > 100 | > 100 |
| Cn1c2ccccc2c(=NNc2ccc(S(=O)(=O)N=C(N)N)cc2)c2ccccc21 | 22.1 | 20.2 | 25 | 21.9 | 13.4 | 49.7 | 71.1 | 32.4 | 11 | 23 | 14 | 16.9 | 28.2 | – | 16.8 | 20.6 | 21.3 | 38.6 | 26.4 | 18 |
| CCCCCCC(O)C(=O)OC1C2C(CC1(C)C)C(O)C13OC1C(O)C1(CO1)[C@@]23C (stereo not given in full) | 53.6 | > 100 | > 100 | > 100 | > 100 | 79.3 | > 100 | > 100 | > 100 | > 100 | – | > 100 | > 100 | > 100 | > 100 | > 100 | > 100 | > 100 | > 100 | > 100 |
| CC(Cn1c(=O)oc2ccccc21)N(C)C (stereo not given) | > 100 | > 100 | > 100 | > 100 | > 100 | > 100 | > 100 | > 100 | – | > 100 | > 100 | > 100 | > 100 | > 100 | – | > 100 | > 100 | > 100 | > 100 | > 100 |
